Values joined by “and” are separate entries in the source; they are usually repeats but may differ in a detail not shown here. Equal values may be shown once.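 Compound exposure: 48 hours, 5 concentrations, 96-well plates. GI50 marks 50% less growth. The concentration for full growth arrest is given as TGI.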
Key:
Test in all cases: NCI anticancer screen, dose series, 48 h
NCI-H522 lung = test system: NCI-H522 lung
MALME-3M melanoma = test system: MALME-3M melanoma
MDA-MB-231 breast = test system: MDA-MB-231 breast
OVCAR-5 ovarian = test system: OVCAR-5 ovarian
MDA-MB-435 = test system: MDA-MB-435
MCF7 breast = test system: MCF7 breast
HCC-2998 colon = test system: HCC-2998 colon
SR leukemia = test system: SR leukemia
HOP-62 NSCLC = test system: HOP-62 NSCLC
EKVX NSCLC = test system: EKVX NSCLC

| Compound | GI50 (NCI-H522 lung) | TGI (NCI-H522 lung) | GI50 (MALME-3M melanoma) | GI50 (MDA-MB-231 breast) | TGI (MDA-MB-231 breast) | GI50 (OVCAR-5 ovarian) | TGI (OVCAR-5 ovarian) | GI50 (MDA-MB-435) | TGI (MDA-MB-435) | GI50 (MCF7 breast) | TGI (MCF7 breast) | GI50 (HCC-2998 colon) | TGI (HCC-2998 colon) | GI50 (SR leukemia) | TGI (SR leukemia) | GI50 (HOP-62 NSCLC) | TGI (HOP-62 NSCLC) | GI50 (EKVX NSCLC) | TGI (EKVX NSCLC) | TGI (MALME-3M melanoma) |
| --- | --- | --- | --- | --- | --- | --- | --- | --- | --- | --- | --- | --- | --- | --- | --- | --- | --- | --- | --- | --- |
| COc1ccc(-c2nn(-c3ccc(NC(=O)c4ccc(Cl)c(C(F)(F)F)c4)cc3)cc2-c2ccncc2)cc1Cl | 4030 nM | > 100 µM | 1110 nM | 317 nM | 1.35 µM | 1330 nM | > 100 µM | 1160 nM | > 100 µM | 1590 nM | > 100 µM | 1060 nM | > 43.4 µM | 316 nM | > 100 µM | 423 nM | 4.88 µM | 1870 nM | > 100 µM |  |
| N=Nc1c(OC(=O)Nc2ccccc2)[nH]c2ccccc12 |  | 36.6 µM |  |  | 41.6 µM |  | > 100 µM |  | 45.1 µM |  | 38.8 µM |  | 29.7 µM |  | > 100 µM |  | 36.4 µM |  | > 100 µM | 29.2 µM |
| NC1=NC(c2ccc(Cl)cc2)N(c2ccc(S(=O)(=O)Nc3ncccn3)cc2)C(N)=N1 (configuration not stated) |  | > 100 µM |  |  | > 100 µM |  | > 100 µM |  | > 100 µM |  | > 100 µM |  |  |  | > 100 µM |  | > 100 µM |  | > 100 µM | > 100 µM |
| C/C=C(\C)c1cc(=O)c2c(C)cc3c(c2o1)C(=O)c1c(O)c(C2CC(C)(N(C)C)C(O)C(C)O2)cc(C2CC(N(C)C)C(O)C(C)O2)c1C3=O (configuration not stated) |  |  |  |  | 0.764 µM | 579 nM and 3790 nM |  |  | 0.866 µM |  | 14.5 µM and 8.8 µM |  |  |  | 12 µM |  |  |  | 1.59 µM |  |
| COc1ccc(C(C#N)NC23CC4CC(CC(C4)C2)C3)cc1OC (configuration not stated) |  | > 100 µM |  |  | > 100 µM |  | > 100 µM |  | > 100 µM |  | > 100 µM |  | > 100 µM |  | > 100 µM |  | > 100 µM |  | > 100 µM | > 100 µM |
| O=C(/C=C/C12c3ccccc3C(c3ccccc31)C1C(=O)N(c3ccccc3)C(=O)C12)c1ccc(Cl)cc1 (configuration not stated) | 1740 nM | 3.58 µM | 1600 nM | 1640 nM | 3.9 µM | 1600 nM | 4.66 µM | 1930 nM | 5.39 µM | 885 nM | > 100 µM | 1700 nM | 3.66 µM | 1070 nM | > 100 µM | 2450 nM | 6.86 µM | 1850 nM | 9.89 µM | 3.37 µM |
| COc1cc([N+](=O)[O-])c(S(=O)(=O)O)cc1NS(=O)(=O)c1ccc(C)cc1 |  | > 100 µM |  |  | > 100 µM |  | > 100 µM |  | > 100 µM |  | > 100 µM |  |  |  | > 100 µM |  | > 100 µM |  | > 100 µM |  |
| COc1ccc2c(c1)[C@]1(C[C@H]1c1ccc3c(/C=C/c4ccc(CN5C[C@@H](C)O[C@@H](C)C5)cc4)n[nH]c3c1)C(=O)N2 | 6400 nM | > 100 µM | 2220 nM | 4350 nM | > 54 µM | 8260 nM | > 100 µM | 3750 nM | 21.8 µM | 1590 nM | > 75.4 µM | 4180 nM | > 59.7 µM | 269 nM | 6.61 µM | 8810 nM | > 100 µM | 6010 nM | > 100 µM | 8.63 µM |
| CN1CCN(CCCOc2cccc3nc(Nc4ccc(Cl)c(F)c4)ccc23)CC1 | 1750 nM | 3.33 µM | 1920 nM | 1680 nM | 3.39 µM | 1550 nM | 3.26 µM | 1610 nM | 3.14 µM | 1310 nM | 2.77 µM | 1520 nM | 3.07 µM |  |  | 1450 nM | 3.26 µM | 1890 nM | 3.86 µM | 4.05 µM |
| COc1cc2ccccc2c2cc([N+](=O)[O-])oc12 |  | 1.35 µM |  |  | 5.8 µM |  | 9.93 µM |  | 0.733 µM |  | 15.8 µM | 294 nM | 1.09 µM |  | 1.92 µM |  | 32 µM |  | 14.1 µM | 0.418 µM |
| COc1cc(NS(C)(=O)=O)ccc1Nc1c2ccccc2nc2c(C)cccc12 | 662 nM and 219 nM | 12.2 µM and 2.98 µM | 312 nM and 251 nM | 1730 nM and 2880 nM | 7.01 µM and 15.3 µM | 571 nM and 572 nM | 13.9 µM and 11.9 µM | 626 nM and 1440 nM | 11.9 µM and 18.1 µM | 24.8 nM and 33.7 nM | 4.42 µM and 11.9 µM | 645 nM and 695 nM | 6.32 µM and 5.51 µM | < 14.5 nM and 13 nM | 6.75 µM and 2.16 µM | 104 nM and 117 nM | 1.37 µM and 1.34 µM |  |  | 3.81 µM and 3.2 µM |
| CC(N=C(N)N)C(=O)O (configuration not stated) |  | > 100 µM |  |  | > 100 µM |  | > 100 µM |  | > 100 µM |  | > 100 µM |  | > 100 µM |  | > 100 µM |  | > 100 µM |  | > 100 µM | > 100 µM |
| Cn1cc(C2=C(c3c4n(c5ccccc35)CCCC4)C(=O)NC2=O)c2ccccc21 | 4290 nM | > 16.3 µM | > 17800 nM | > 20200 nM | > 25 µM | > 25000 nM | > 25 µM | 1080 nM | > 15.2 µM | 6580 nM | > 25 µM | > 23800 nM | > 25 µM | 5920 nM | > 25 µM | > 17600 nM | > 25 µM |  |  | > 25 µM |
| O=C(CCN1CCOCC1)Nc1ccc(F)cc1F |  | > 100 µM |  |  | > 100 µM |  | > 100 µM |  | > 100 µM |  | > 100 µM |  |  |  | > 100 µM |  | > 100 µM |  | > 100 µM | > 100 µM |
| COc1cc(-c2nn(-c3ccc(NC(=O)Nc4ccc(Cl)c(Cl)c4)cc3)cc2-c2ccncc2)ccc1Cl |  |  |  | 2620 nM | 7.7 µM | 2540 nM | > 100 µM | 2870 nM | 8.8 µM | 3350 nM | > 100 µM | 2620 nM | 7.65 µM | 3770 nM | > 100 µM | 3790 nM | 22.3 µM | 2610 nM | 15.3 µM |  |
| CN(Cc1cnc(N)nc1N)c1ccc(C(=O)O)cc1 | > 100000 nM | > 100 µM | > 100000 nM | > 100000 nM | > 100 µM | > 100000 nM | > 100 µM | > 100000 nM | > 100 µM | > 100000 nM | > 100 µM | > 100000 nM | > 100 µM | > 100000 nM | > 100 µM | > 100000 nM | > 100 µM | > 100000 nM | > 100 µM | > 100 µM |
